In one series the target is T1, Human thrombin (Homo sapiens, UniProt P00734).
T1 construct: purchased Haematologic Technologies Inc
Nature of the series: Thrombin protease activity inhibition, chromogenic substrate S-2238. In kind it is biochemical. The conditions noted are these: 3 nM thrombin, 125 μM S-2238, 10 min pre-incubation, RT. Summed up: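 Thrombin at 3 nM final in 0.05 M Tris pH 7.4, 0.015 M NaCl, 0.01% PEG-8000, at room temperature; compounds as ten-point three-fold dilutions.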
Consider `COc1ccccc1C(=O)n1nc(C2(C)CCNC2=O)cc1NCc1ccc(Cl)s1` (centres unmarked) [Entry 118, 3-(5-[(5-chlorothiophen-2-yl)methyl]amino-1-(2-methoxybenzoyl)-1H-pyrazol-3-yl)-3-methylpyrrolidin-2-one], for which the IC50 fell in the range of 100 to 1000 nM.

In turn, `Clc1ccc(CNc2cc(C3CCN(Cc4ccccc4)CC3)n[nH]2)s1` [Entry 113, 3-(1-benzylpiperidin-4-yl)-N-[(5-chlorothiophen-2-yl)methyl]-1H-pyrazol-5-amine] came in with a concentration for half-maximal inhibition (IC50) above 100000 nM.

`Cc1cccc(CN2CCC(c3cc(NCc4ccc(Cl)s4)[nH]n3)CC2)n1` [Entry 220, N-[(5-chlorothiophen-2-yl)methyl]-3-1-[(6-methylpyridin-2-yl)methyl]piperidin-4-yl-1H-pyrazol-5-amine] had an IC50 above 100000 nM.

Compound `CC(C)(C)C(=O)n1nc(C2(C)CCNC2=O)cc1NCc1ccc(Cl)s1` (centres unmarked) [Entry 116, 3-(5-[(5-chlorothiophen-2-yl)methyl]amino-1-(2,2-dimethylpropanoyl)-1H-pyrazol-3-yl)-3-methylpyrrolidin-2-one] yielded an IC50 below 100 nM.

Compound `C=CCOC(=O)N1CCN(CC(F)(F)F)CC1c1cc(NCc2ccc(Cl)s2)[nH]n1` (centres unmarked) [Entry 248, prop-2-en-1-yl 2-(5-[(5-chlorothiophen-2-yl)methyl]amino-1H-pyrazol-3-yl)-4-(2,2,2-trifluoroethyl)piperazine-1-carboxylate] yielded an IC50 above 100000 nM.

For the compound `COCC(C)(C)C(=O)n1nc(C2(C)CCN(C(=O)OC(C)(C)C)CC2)cc1NCc1ccc(Cl)s1` [Entry 298, tert-butyl 4-(5-[(5-chlorothiophen-2-yl)methyl]amino-1-(3-methoxy-2,2-dimethylpropanoyl)-1H-pyrazol-3-yl)-4-methylpiperidine-1-carboxylate], the IC50 was below 100 nM.

In turn, `CN(C)S(=O)(=O)N1CCC(c2cc(NCc3ccc(Cl)s3)n(C(=O)C(C)(C)CO)n2)CC1` [Entry 135, 4-(5-[(5-chlorothiophen-2-yl)methyl]amino-1-(3-hydroxy-2,2-dimethylpropanoyl)-1H-pyrazol-3-yl)-N,N-dimethylpiperidine-1-sulfonamide] registered an IC50 below 100 nM.

In turn, `CC1(C(=O)n2nc(C3CCCNC3)cc2NCc2ccc(Cl)s2)CCOCC1` (centres unmarked) [Entry 164, N-[(5-chlorothiophen-2-yl)methyl]-1-(4-methyloxane-4-carbonyl)-3-(piperidin-3-yl)-1H-pyrazol-5-amine] had an IC50 of 100 to 1000 nM.

`Cc1c(C2CCN(C(=O)N3CCOCC3)CC2)n[nH]c1NCc1ccc(Cl)s1` [Entry 237, N-[(5-chlorothiophen-2-yl)methyl]-4-methyl-3-[1-(morpholine-4-carbonyl)piperidin-4-yl]-1H-pyrazol-5-amine] returned an IC50 of 10000 to 100000 nM.

`CC(C)(C)OC(=O)N1CCC(c2cc(NCc3ccc(Cl)s3)[nH]n2)CC1` [Entry 302, tert-butyl 4-(5-[(5-chlorothiophen-2-yl)methyl]amino-1H-pyrazol-3-yl)piperidine-1-carboxylate] returned an IC50 above 100000 nM.

Consider `C=CCOC(=O)N1CCC(c2nn(C(=O)c3cscn3)c(NCc3ccc(Cl)s3)c2C)CC1` [Entry 270, prop-2-en-1-yl 4-(5-[(5-chlorothiophen-2-yl)methyl]amino-4-methyl-1-(1,3-thiazole-4-carbonyl)-1H-pyrazol-3-yl)piperidine-1-carboxylate], for which the IC50 is below 100 nM.

Consider `O=C(c1ccoc1)n1nc(C2CCCN2)cc1NCc1ccc(Cl)s1` (centres unmarked) [Entry 167, N-[(5-chlorothiophen-2-yl)methyl]-1-(furan-3-carbonyl)-3-(pyrrolidin-2-yl)-1H-pyrazol-5-amine], for which the IC50 was below 100 nM.

As to `O=C(CN1CCOCC1)N1CCC(c2cc(NCc3ccc(Cl)s3)[nH]n2)CC1` [Entry 103, 1-[4-(5-[(5-chlorothiophen-2-yl)methyl]amino-1H-pyrazol-3-yl)piperidin-1-yl]-2-(morpholin-4-yl)ethan-1-one], the 50% inhibitory concentration (IC50) is above 100000 nM.

Regarding `CC(C)(C)OC(=O)N1CCCC(c2cc(NCc3ccc(Cl)s3)[nH]n2)C1` (centres unmarked) [Entry 290, tert-butyl 3-(5-[(5-chlorothiophen-2-yl)methyl]amino-1H-pyrazol-3-yl)piperidine-1-carboxylate], the IC50 is above 100000 nM.

`COc1ccc(C(=O)n2nc(C3CCCN3)cc2NCc2ccc(Cl)s2)c(OC)c1` (centres unmarked) [Entry 148, N-[(5-chlorothiophen-2-yl)methyl]-1-(2,4-dimethoxybenzoyl)-3-(pyrrolidin-2-yl)-1H-pyrazol-5-amine] returned an IC50 below 100 nM.

Take `CC(C)(C)C(=O)n1nc(C2CC3CCC(C2)N3S(C)(=O)=O)cc1NCc1ccc(Cl)s1` (centres unmarked) [Entry 81, 1-(5-[(5-chlorothiophen-2-yl)methyl]amino-3-8-methanesulfonyl-8-azabicyclo[3.2.1]octan-3-yl-1H-pyrazol-1-yl)-2,2-dimethylpropan-1-one]: the 50% inhibitory concentration (IC50) is below 100 nM.

The compound `C=CCOC(=O)N1CCN(S(C)(=O)=O)CC1c1cc(NCc2ccc(Cl)s2)n(C(=O)c2cscn2)n1` (centres unmarked) [Entry 242, prop-2-en-1-yl 2-(5-[(5-chlorothiophen-2-yl)methyl]amino-1-(1,3-thiazole-4-carbonyl)-1H-pyrazol-3-yl)-4-methanesulfonylpiperazine-1-carboxylate] showed an IC50 of 100 to 1000 nM.

`O=C(N1CCOCC1)N1CCC(c2cc(NCc3ccc(Cl)s3)n(C(=O)N3CCOCC3)n2)CC1` [Entry 168, N-[(5-chlorothiophen-2-yl)methyl]-1-(morpholine-4-carbonyl)-3-[1-(morpholine-4-carbonyl)piperidin-4-yl]-1H-pyrazol-5-amine] registered an IC50 of 1000 to 10000 nM.

In turn, `O=C(N1CCOCC1)N1CCC(c2cc(NCc3ccc(Cl)s3)[nH]n2)C1` (centres unmarked) [Entry 206, N-[(5-chlorothiophen-2-yl)methyl]-3-[1-(morpholine-4-carbonyl)pyrrolidin-3-yl]-1H-pyrazol-5-amine] registered an IC50 above 100000 nM.

`C=CCOC(=O)N1CCN(S(C)(=O)=O)CC1c1cc(NCc2ccc(Cl)s2)n(C(=O)C(C)(C)C)n1` (centres unmarked) [Entry 246, prop-2-en-1-yl 2-(5-[(5-chlorothiophen-2-yl)methyl]amino-1-(2,2-dimethylpropanoyl)-1H-pyrazol-3-yl)-4-methanesulfonylpiperazine-1-carboxylate] displayed an IC50 above 100000 nM.

Regarding `C=CCOC(=O)N1CCC(c2n[nH]c(NCc3ccc(Cl)s3)c2C)CC1` [Entry 271, prop-2-en-1-yl 4-(5-[(5-chlorothiophen-2-yl)methyl]amino-4-methyl-1H-pyrazol-3-yl)piperidine-1-carboxylate], the IC50 was above 100000 nM.

`C=CCOC(=O)N1CCN(C(=O)CN2CCOCC2)CC1c1cc(NCc2ccc(Cl)s2)n(C(=O)c2cscn2)n1` (centres unmarked) [Entry 241, prop-2-en-1-yl 2-(5-[(5-chlorothiophen-2-yl)methyl]amino-1-(1,3-thiazole-4-carbonyl)-1H-pyrazol-3-yl)-4-[2-(morpholin-4-yl)acetyl]piperazine-1-carboxylate] displayed an IC50 of 100 to 1000 nM.

In turn, `COCC(C)(C)C(=O)n1nc(C2(C)CCCNC2=O)cc1NCc1ccc(Cl)s1` (centres unmarked) [Entry 120, 3-(5-[(5-chlorothiophen-2-yl)methyl]amino-1-(3-methoxy-2,2-dimethylpropanoyl)-1H-pyrazol-3-yl)-3-methylpiperidin-2-one] returned an IC50 of 1000 to 10000 nM.

The test system of the next series is malignant breast tumors.
Assay: not given
The conditions noted are these: at 4 weeks, treated mice; cited from earlier work.
For the compound `CCCCCCOC(=O)NC(=N)c1ccc(NCc2nc3cc(C(=O)N(CCC(=O)OCC)c4ccccn4)ccc3n2C)cc1` [dabigatran etexilate], the “reduction in tumor volume” value is on record as 50%.

The series is the same for the next values; noted with them: at 4 weeks; cited from earlier work.
Regarding `CCCCCCOC(=O)NC(=N)c1ccc(NCc2nc3cc(C(=O)N(CCC(=O)OCC)c4ccccn4)ccc3n2C)cc1` [dabigatran etexilate], the “weight loss in treated mice” value is “no weight loss”.

The series is the same for the next values; noted with them: treated mice; cited from earlier work.
On to `CCCCCCOC(=O)NC(=N)c1ccc(NCc2nc3cc(C(=O)N(CCC(=O)OCC)c4ccccn4)ccc3n2C)cc1` [dabigatran etexilate], for which the “reduction of tumor cells in the blood and liver micrometastases” value was 50-60%.

These data come from patent US10532995B2, “Substituted pyrazole compounds as serine protease inhibitors” (VERSEON CORPORATION, priority 2015, dated 2020).
